How the values were obtained:
[1] = Blood concentration measurement test (oral administration to mice); assay type: in vivo, mice (Balb/cA); conditions: 50 mg/10 mL/kg; for AUC0-24 hr: mice (Balb/cA) under feeding conditions, Compound 1 in plasma, LC-MS/MS
Method: Respective solutions for administration (50 mg/10 mL/kg) of the Form I crystal and Form II crystal were produced. These solutions were administered orally to mice (Balb/cA) bred under feeding conditions at a volume of 10 mL/kg body weight using a sonde for oral administration. After the administration, the mice were returned to cages for mice to inspect their conditions. Water and feed were freely available for the mice in the cages. The mice were anesthetized with isoflurane 1, 2, 3, 4, 8 and 24 hours after the administration and 60 μL of blood was collected from their orbital sinuses using capillary blood collection tubes. The collected blood was cooled on ice and centrifuged to separate plasma.
AUCs0-24 hrwere calculated with a linear-log trapezoid method using Phoenix WinNonlin (v6.3.0), software from Pharsight, from the concentrations of Compound 1 in plasma samples measured with Multiple Reaction Monitoring method using LC-MS/MS.
Therefore, the Form II crystal according to the present invention is remarkably excellent in oral absorbability and useful as an oral pharmaceutical composition.

[2] = Solid stability test (accelerated test), related substances by HPLC; assay type: physicochemical
Method: The solid stability of the Form II crystal obtained in Example 1 after storage of 1, 3 and 6 months at 40° C.±2° C./75% RH±5% RH was measured under the following conditions. • Storage conditions: 40° C.±2° C./75% RH±5% RH • Measurement points: 1, 3 and 6 month • Storage amount: 6 g • Storage container: doubled plastic bags, banding bands+plastic drums • Preparation method of sample solution: 100 mg of the Form II crystal is accurately measured, a mixed solution of acetonitrile-water (4:1) is added to dissolve the crystal (sonicated to dissolve, if difficult to dissolve), and the solution is diluted in measuring cylinder to exact 200 mL total. 10 mL of this solution is accurately measured, and a mixed solution of acetonitrile-water (1:1) is added to exact 20 mL to be used as a sample solution.
HPLC was performed in the following conditions. • Column: general foundation Chemicals Evaluation and Research Institute, Japan L-column2 ODS • Particle size: 3 μm, Inner diameter: 4.6 mm, Length: 15 cm • Measurement wavelength: 220 nm • Mobile phase: Mobile phase A: 10 mmol/L phosphate buffer (pH6.9), • Mobile phase B: acetonitrile • Flow rate: about 1.0 mL/min
The concentration gradient is controlled by changing the mixing ratio of mobile phases A and B as follows, when feeding the liquid.
The amounts of related substances in the sample solutions were measured and evaluated by HPLC, of which result is shown in Table 3.
The related substances are defined as substances detected other than 3-ethyl-4-{3-isopropyl-4-(4-(1-methyl-1H-pyrazol-4-yl)-1H-imidazol-1-yl)-1H-pyrazolo[3,4-b]pyridin-1-yl}benzamide.

For `CCc1cc(C(N)=O)ccc1-n1nc(C(C)C)c2c(-n3cnc(-c4cnn(C)c4)c3)ccnc21` [Form I crystal, 3-ethyl-4-{3-isopropyl-4-(4-(1-methyl-1H-pyrazol-4-yl)-1H-imidazol-1-yl)-1H-pyrazolo[3,4-b]pyridin-1-yl}benzamide], the AUC0-24 hr [1] was 59.64 µM·h.
In the case of `CCc1cc(C(N)=O)ccc1-n1nc(C(C)C)c2c(-n3cnc(-c4cnn(C)c4)c3)ccnc21` [Form II crystal, 3-ethyl-4-{3-isopropyl-4-(4-(1-methyl-1H-pyrazol-4-yl)-1H-imidazol-1-yl)-1H-pyrazolo[3,4-b]pyridin-1-yl}benzamide], the “AUC0-24 hr of the Form II crystal relative to the Form I crystal” value ([1]; mice (Balb/cA)) is reported as “approximately 3 times”, the AUC0-24 hr [1] is reported as 171.33 µM·h and the Related substances ([2]; storage 1 month at 40° C.±2° C./75% RH±5% RH) is reported as “less than 0.1%”. For the same compound, the Related substances ([2]; storage 3 months at 40° C.±2° C./75% RH±5% RH) was “less than 0.1%” and the Related substances ([2]; storage 6 months at 40° C.±2° C./75% RH±5% RH) was “less than 0.1%”.

— patent US10947233B2, “Crystals of azabicyclic compound” (TAIHO PHARMACEUTICAL CO., LTD., priority 2015, dated 2021)
